Results from patent US6677307B2, “TGF-α polypeptides, functional fragments and methods of use therefor” (Kaleidos Pharma, Inc., priority 1999, dated 2004).

How the values were obtained:
kidney [1] = assay: gentamicin chronic kidney toxicity, blood BUN and creatinine; assay type: in vivo, CD-1 mice; conditions: gentamicin sulfate 80 mg/kg sc every 24 hours; 1 μg ip every 24 hours; two weeks
Method: In another set of in vivo experiments, gentamicin (antibiotic having dose-limiting kidney toxicity side effects) was used as the cytotoxic agent for a chronic cytotoxic agent. Eight CD-1 mice were weighed and injected subcutaneously with 80 mg/kg of gentamicin sulfate. Four of the mice were controls and injected with 0.1 ml of 0.9% saline and the other four injected ip with 0.1 ml of 10 μg/ml stock of TGF-α (57 aa polypeptide) as a 1 μg dose. The mice were reinjected with the same does of saline or TGF-α every 24 hours and every 24 hours subcutaneously with the same does of gentamicin. After two weeks of treatment, the mice were sacrificed and blood BUN and creatinine were measured and the kidneys examined. The average creatinine values were 0.49±0.096 for controls and 0.34±0.042 for treated mice. The average BUN values were 36.1±4.8 for controls and 35.5±4.9 for treated mice.

[2] = tested on: lymphoid tissues such as spleen and the large intestine; assay: histological examination of lymphoid tissues after TGF-α57; assay type: in vivo; conditions: mice; 10-50 μg/kg ip 3 days or 10-50 μg/kg iv 2 days or 10 μg/kg sc 3-5 days; vs untreated mice
Source text: In still another embodiment, a TGF-α polypeptide, a related polypeptide, mimetic, or functional fragment thereof having TGF-α activity are useful as vaccine adjuvants to increase mucosal humoral immunity. […] Such T cell progenitors positioned in the gastrointestinal tract represent a reservoir for CD4 helper cells needed against mucosal directed vaccine production mediated by priming with exogenous antigen. The T cell progenitor cells appear to be double null and thus naive. Accordingly, the T cell progenitor cell response to TGF-α and TGF-α mimetics provides the utility for such compounds to provide a strong mucosal immunity response and usefulness as a mucosal vaccine and as a universal stem cell adjuvant.

kidney [3] = assay: glycerol acute kidney toxicity, blood BUN and creatinine; assay type: in vivo, CD-1 mice; conditions: 50% glycerol 10 ml/kg im; 1 μg ip; two treatments
Method: In another set of in vivo experiments, glycerol (50% (v/v) aqueous solution, Sigma) was used as the cytotoxic agent for an acute cytotoxic agent. Six CD-1 mice were weighed and injected into both hind limbs im with 10 ml/kg of 50% (v/v) glycerol, one half into each hind limb im. Three of the mice were controls and injected with 0.1 ml of 0.9% saline and the other three injected ip with 0.1 ml of 10 μg/ml stock of TGF-α (57 aa polypeptide) as a 1 μg dose. The mice were reinjected with the same does of saline or TGFα the next day and another equal dose of 50% glycerol. After two treatments, the mice were sacrificed and blood BUN and creatinine was measured and the kidneys examined. The average creatinine values were 1.75±0.613 for controls and 1.51±0.940 for treated mice. The average BUN values were […] for controls and 165.3±75.6 for treated mice.

TGF-α57: 57 amino acid polypeptide of formula VI: Ser-Leu-Ser-Leu-Pro-Ala-Met-Human TGFα
average BUN (kidney [1]): 35.5±4.9
average creatinine (kidney [1]): 0.34±0.042
T cell progenitor cells (histology) [2]: increase in T cell progenitor cells
average BUN (kidney [3]): 165.3±75.6
average creatinine (kidney [3]): 1.51±0.940
